Experiments:
human LPA receptor EDG-2 = target: T1, human LPA receptor EDG-2 (Homo sapiens, UniProt Q92633); assay: FUS1::lacZ (β-galactosidase) reporter assay in yeast expressing EDG-2; format: cell-based; conditions: for activation of EDG-2 (FUS1::lacZ activity): concentrations up to 200 μM, S.C.+2% galactose; for activity towards EDG-2 of liposome preparations on their own: liposomes without LPA
T1 construct: The EDG-2 coding region was amplified by RT-PCR using Pfu DNA polymerase; expressed in transfected cells; host or cells: Saccharomyces cerevisiae JEY5 (sst2-, far1, FUS1::lacZ), plasmid pYEUra3-Edg2 (pJE15), galactose-inducible
T1 sequence (Q92633 whole entry): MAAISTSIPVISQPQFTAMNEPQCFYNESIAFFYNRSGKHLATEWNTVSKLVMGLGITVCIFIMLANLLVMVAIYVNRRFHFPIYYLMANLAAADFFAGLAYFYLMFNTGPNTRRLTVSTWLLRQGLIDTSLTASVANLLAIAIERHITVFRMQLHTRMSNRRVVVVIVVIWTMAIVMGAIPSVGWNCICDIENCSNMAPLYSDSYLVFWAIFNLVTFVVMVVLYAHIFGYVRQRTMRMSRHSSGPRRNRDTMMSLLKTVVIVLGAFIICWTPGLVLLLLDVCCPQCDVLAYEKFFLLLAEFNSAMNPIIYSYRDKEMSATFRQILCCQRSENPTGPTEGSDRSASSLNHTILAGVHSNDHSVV
Description: SY2069 (Mata, far1-bad3, HIS3::pFUS1::HIS3, mfa2-Δ1::pFUS1::lacZ, ura3, leu2, ade1, arg4, trp1) was used to derive an sst2^− strain for subsequent studies. SST2 was disrupted using pBC14 (Dohlman, H. G., et al. (1996) Mol. Cell. Biol. 16(9), 5194-5209). pBC14 was digested with NcoI and transformed into SY2069 by lithium acetate using the URA3 gene for selection. Ura^+ colonies were grown in non-selective media (YEPD) and plated onto media containing 5-Flouro-orotic Acid (5-FOA, Sigma). The resultant 5-FOA resistant isolates were tested for the supersensitive phenotype by assaying lacZ activity in response to α-factor (data not shown). One sst2^− strain was named JEY5 and used in all subsequent studies. Yeast were grown in SC+2% Galactose or 2% Glucose media lacking Uracil.
Construction of EDG-2 Expression Plasmid and Expression in Yeast: The EDG-2 coding region was amplified by RT-PCR using Pfu DNA polymerase under conditions described by the supplier (Stratagene). The template for RT-PCR was cDNA (5 ng) that was reverse transcribed from human fetal brain total RNA (Clontech) using SuperScript II Reverse Transcriptase as described by the supplier (Gibco BRL). 1 μM each of the following primers, FP; 5′-[…]-3′ (SEQ ID NO. 2) and RP; 5′-[…]-3′ (SEQ ID NO. 3), were used for RT-PCR. Oligonucleotide Synthesis and DNA Sequencing: PCR primers and DNA sequencing primers were synthesized by the phosphoramidite method with an Applied Biosystems model 394 synthesizer, purified by polyacrylamide gel electrophoresis and desalted on Sep-Pak C18 cartridges (Waters Associates, Milford, Mass.). The edg-2 cDNA was sequenced in pYEUra3 by the dideoxy chain termination method using the T7 Sequenase7-deaza-dGTP sequencing kit as described by the supplier (Amersham Life Science). The primers were designed based on the human edg-2 cDNA sequence submitted to Genbank by Zondag and Moolenaar (accession no. Y09479) and included restriction site extensions for subcloning into the pYEUra3 vector (Stratagene). This placed the cDNA under the control of a galactose-inducible promoter (UASgal). The resulting plasmid was used to transform JEY5 by the lithium acetate method.
(§1) Expression of the EDG-2: To test the effects of the SST2 gene product on the edg-2 response to LPA, JEY5 (sst2Δ) expressing the EDG-2 receptor was compared to the parental SY2069 strain (SST2^+). […] As a control, JEY5+EDG-2 was assayed in 2% glucose such that the GAL1 promoter would be repressed and thus not expressing the edg-2 gene (glucose repression is described in detail by Johnston, M., and Carlson, M. (1992) in The molecular and cellular biology of the yeast Saccharomyces: gene expression (Broach, J. R., Pringle, J. R., and Jones, E. W., eds), pp. 193-281, Cold Spring Harbor Laborartory Press, Plainview, N.Y.). lacZ assays in response to phospholipids: JEY5+pJE15 was grown on SC media containing either 2% galactose or 2% glucose lacking uracil to an approximate optical density of 0.1-0.5 prior to the addition of lipid or α-factor. LPA and other glycerophospholipids (Avanti Polar Lipids) were dissolved in chloroform and dried down under vacuum immediately prior to experiments and resuspended in BBS/EDTA (50 mM NH4HCO3, 104 mM NaCl, 250 mM EDTA2Na) at 1 mg/ml with sonication until the solution was clear. Sphingosine-1-phosphate (Matreya) was resuspended in ethanol/water (9:1) pH 3.0 immediately prior to use. Fatty Acid Free Bovine Serum Albumin was obtained from Sigma (St. Louis, Mo.) and used at 0.1 mg/ml in BBS/EDTA. Cells were allowed to grow for the indicated time (7 hours for dose response experiments) prior to assaying. 100 μl of yeast culture were then added to 900 μl assay buffer (per liter: 60 mM Na2HPO4, 40 mM NaH2PO4, 10 mM KCl, 0.1 mM MgSO4, pH 7.0 plus 2.7 ml β-mercaptoethanol per liter) plus 50 μl 0.1%SDS+three drops Chloroform. Cells were vortexed for 10 seconds and incubated for 5 minutes at 28° C.

yeast cells = assay: Toxicity of lipids to the yeast cells in the lacZ assay; format: cell-based, Saccharomyces cerevisiae; conditions: yeast culture
Description: as §1, with “[…] Color development” for “Fatty Acid Free Bovine Serum Albumin”, “measured at A420” for “obtained from Sigma (St. Louis, Mo.)”, “normalized to A600. Units” for “used at 0.1 mg/ml in BBS/EDTA. Cells”, “expressed as Miller Units. […]” for “allowed to grow for the indicated time (7 hours for dose response experiments) prior to assaying. 100 μl of yeast culture were then added to 900 μl assay buffer (per liter: 60 mM Na2HPO4, 40 mM NaH2PO4, 10 mM KCl, 0.1 mM MgSO4, pH 7.0 plus 2.7 ml β-mercaptoethanol per liter) plus 50 μl 0.1%SDS+three drops Chloroform. Cells were vortexed for 10 seconds and incubated for 5 minutes at 28° C.”

Compound: 1-acyl-2-hydroxy-sn-glycero-3-phosphate [LPA]
- response of FUS1::lacZ to LPA, sst2- derivative (human LPA receptor EDG-2; JEY5 (sst2Δ) expressing EDG-2, 200 μM LPA, galactose, seven hours): activated
- activation of EDG-2 (FUS1::lacZ activity) (human LPA receptor EDG-2; seven hours): specifically responds
- response of FUS1::lacZ to LPA, SST2+ strain (human LPA receptor EDG-2; parental SY2069 strain (SST2+) expressing EDG-2): unresponsive
- maximal stimulation of lacZ activity as compared to vector control (human LPA receptor EDG-2; time course, at 7 hours): four-fold
- concentration at which toxicity was seen / above which testing was not possible due to toxicity (yeast cells): above 600 μM

Compound: 1-palmitoyl-2-oleoyl-phosphatidylglycerol
- activity towards EDG-2 of liposome preparations on their own (human LPA receptor EDG-2): no activity

Compound: CCCCCCCCCCCCC/C=C/[C@@H](O)[C@@H](N)COP(=O)(O)O [Sphingosine-1-phosphate]
- activation of EDG-2 (FUS1::lacZ activity) (human LPA receptor EDG-2; seven hours): no other lyso-glycerolphospholipid or Sphingosine-1-phosphate activated EDG-2 as well as did LPA
- activation of EDG-2 (FUS1::lacZ activity) (human LPA receptor EDG-2; seven hours, listed as sphingosine-1-phosphate): does not respond

Compound: dioleoyl-phosphatidylcholine
- activity towards EDG-2 of liposome preparations on their own (human LPA receptor EDG-2): no activity

From patent publication US6485922B1, “Methods for detecting compounds which modulate the activity of an LPA receptor” (Atairgin Technologies, Inc., priority 1997, dated 2002)
